Experimental data from patent US8940909B2, “Indicator platform” (Biosynth AG, priority 2009, dated 2015).

Key:
enteric bacterial cells = test: MDAB staining of bacterial colonies with indicators I4a and I5a on Tryptic Soy Agar, aerobic and anaerobic; type: cell-based; conditions: for colonial morphology, aerobic conditions / colonial morphology, microaerobic (anaerobic) conditions: Salmonella manhattan (b-gal −), TSAYE with 40 mg/100 ml of indicator
Experimental: Tryptic Soy Agar (TSA) with yeast extract (0.6%) was used as the base plating medium. The media were autoclaved at 121° C. for 15 minutes and placed in a 50° C. water bath to cool. Indicators were added to the basal medium at a final concentration of 40 mg/100 ml (from 80 mg/ml stock solutions in DMF). Over night cultures of enteric bacterial cells in Brain Heart Infusion Broth were streaked onto the plates and incubated at 35° C. for 24 hours under aerobic and anaerobic conditions. After incubation, the colonial morphologies on the plates were recorded (Table III).
Weak staining was observed occasionally due to residual oxygen (micro-anaerobic conditions). Under aerobic conditions indigo (IN-stains) generally dominated the effects of MDAB staining. For example indicator system I4a/MDAB stained colonies violet under anaerobic but indigo blue under aerobic conditions.

Salmonella bongori 81 = test: IO staining of colonies of beta-D-galactosidase positive/negative bacteria (Table IVb); type: cell-based; conditions: Salmonella bongori strain 81, b-gal +; 24 h on Nutrient Agar, 150 mg/l indicator, 100 mg/l IPTG; for C: Color of colonies: key: −: absent; +/−: weak/variable; +: strong; for G: Growth of colonies: key: −: absent; +/−: weak; +: strong; ++: very strong
Citrobacter freundii 181 = test: as above; type: cell-based; conditions: Citrobacter freundii strain 181, b-gal +; 24 h on Nutrient Agar, 150 mg/l indicator, 100 mg/l IPTG
Shigella boydii 135 = test: as above; type: cell-based; conditions: Shigella boydii strain 135, b-gal −; 24 h on Nutrient Agar, 150 mg/l indicator, 100 mg/l IPTG
Staphylococcus aureus 2 = test: as above; type: cell-based; conditions: Staphylococcus aureus strain 2, b-gal −, 24 h on Nutrient Agar, 150 mg/l indicator, 100 mg/l IPTG
[1] = test system: Listeria monocytogenes (4b) 290; test: as above; type: cell-based; conditions: Listeria monocytogenes (4b) strain 290, b-gal −; 24 h on Nutrient Agar, 150 mg/l indicator, 100 mg/l IPTG; for C: Color of colonies: key: −: absent; +/−: weak; +: strong; ++: very strong; for F: Fluorescence of colonies: key: −: absent; +/−: weak; +: strong; ++: very strong
Serratia marcescens 40 = test: as above; type: cell-based; conditions: Serratia marcescens strain 40, b-gal +; 24 h on Nutrient Agar, 150 mg/l indicator, 100 mg/l IPTG
[2] = test system: Shigella dysenteriae Serovar 1 131; test: as above; type: cell-based; conditions: Shigella dysenteriae Serovar 1 strain 131, b-gal +/−; 24 h on Nutrient Agar, 150 mg/l indicator, 100 mg/l IPTG
Shigella sonnei 133 = test: as above; type: cell-based; conditions: Shigella sonnei strain 133, b-gal +/−; 24 h on Nutrient Agar, 150 mg/l indicator, 100 mg/l IPTG
Salmonella illa 73 = test: as above; type: cell-based; conditions: Salmonella illa strain 73, b-gal +; 24 h on Nutrient Agar, 150 mg/l indicator, 100 mg/l IPTG
[3] = test system: Pseudomonas aeruginosa 168; test: as above; type: cell-based; conditions: Pseudomonas aeruginosa strain 168, b-gal −, 24 h on Nutrient Agar, 150 mg/l indicator, 100 mg/l IPTG; for C: Color of colonies: key: −: absent; +/−: weak; +: strong; ++: very strong; for G: Growth of colonies: key: −: absent; +/−: weak; +: strong; ++: very strong
[4] = test system: Staphylococcus intermedius 31; test: as above; type: cell-based; conditions: Staphylococcus intermedius strain 31, b-gal +; 24 h on Nutrient Agar, 150 mg/l indicator, 100 mg/l IPTG
Aeromonas hydrophila 292 = test: as above; type: cell-based; conditions: Aeromonas hydrophila strain 292, b-gal +; 24 h on Nutrient Agar, 150 mg/l indicator, 100 mg/l IPTG
Enterobacter cloacae 245 = test: as above; type: cell-based; conditions: Enterobacter cloacae strain 245, b-gal +; 24 h on Nutrient Agar, 150 mg/l indicator, 100 mg/l IPTG
Bacillus subtilis 65 = test: as above; type: cell-based; conditions: Bacillus subtilis strain 65, b-gal −; 24 h on Nutrient Agar, 150 mg/l indicator, 100 mg/l IPTG
[5] = test system: Klebsiella pneumoniae 164; test: as above; type: cell-based; conditions: Klebsiella pneumoniae strain 164, b-gal +; 24 h on Nutrient Agar, 150 mg/l indicator, 100 mg/l IPTG; for C: Color of colonies: key: −: absent; +/−: weak; +: strong; ++: very strong; for G: Growth of colonies: key: −: absent; +/−: weak; +: strong; ++: very strong
Escherichia coli 61 = test: as above; type: cell-based; conditions: Escherichia coli strain 61, b-gal +; 24 h on Nutrient Agar, 150 mg/l indicator, 100 mg/l IPTG
[6] = test system: Yersinia enterocolitica 175; test: as above; type: cell-based; conditions: Yersinia enterocolitica strain 175, b-gal +/−; 24 h on Nutrient Agar, 150 mg/l indicator, 100 mg/l IPTG; for G: Growth of colonies: key: −: absent; +/−: weak; +: strong; ++: very strong
[7] = test system: Salmonella enteritidis 43; test: as above; type: cell-based; conditions: Salmonella enteritidis strain 43, b-gal −; 24 h on Nutrient Agar, 150 mg/l indicator, 100 mg/l IPTG; note: key: −: absent; +/−: weak; +: strong; ++: very strong
[8] = test system: Escherichia coli (O157:H7) 60; test: as above; type: cell-based; conditions: Escherichia coli (O157:H7) strain 60, b-gal +; 24 h on Nutrient Agar, 150 mg/l indicator, 100 mg/l IPTG
Escherichia coli = test: IN and IO staining of bacterial colonies under anaerobic conditions; type: cell-based; conditions: Nutrient Agar plates, anaerobically incubated with E. coli
Experimental: Nutrient Agar plates containing 150 mg/l of various substrates and 100 mg/l IPTG were inoculated with Escherichia coli. Plates were put in an anaerobic jar (Anaerojar, Oxoid), an AnaeroGen sachet (Oxoid) was added, the jar was closed and incubated for 24 hours at 37° C.
IN staining cannot be used under anaerobic conditions.

[9] = test system: Staphylococcus saprophyticus 273; test: IO staining of colonies of beta-D-galactosidase positive/negative bacteria (Table IVb); type: cell-based; conditions: Staphylococcus saprophyticus strain 273, b-gal +; 24 h on Nutrient Agar, 150 mg/l indicator, 100 mg/l IPTG; for G: Growth of colonies: key: −: absent; +/−: weak; +: strong; ++: very strong
Escherichia coli 270 = test: as above; type: cell-based; conditions: Escherichia coli strain 270, b-gal +; 24 h on Nutrient Agar, 150 mg/l indicator, 100 mg/l IPTG
[10] = test system: Streptococcus agalactiae 195; test: as above; type: cell-based; conditions: Streptococcus agalactiae strain 195, b-gal −; 24 h on Nutrient Agar, 150 mg/l indicator, 100 mg/l IPTG; for C: Color of colonies: key: −: absent; +/−: weak; +: strong; ++: very strong; for F: Fluorescence of colonies: key: −: absent; +/−: weak; +: strong; ++: very strong
[11] = test system: Enterobacter aerogenes 242; test: as above; type: cell-based; conditions: Enterobacter aerogenes strain 242, b-gal +; 24 h on Nutrient Agar, 150 mg/l indicator, 100 mg/l IPTG; for C: Color of colonies: key: −: absent; +/−: weak; +: strong; ++: very strong; for G: Growth of colonies: key: −: absent; +/−: weak; +: strong; ++: very strong
[12] = Reaction of MDAB with active signalogens (aldol donor properties); conditions: for Efficiency as aldol donor with MDAB: compared with 6-chloro-1H-indol-3-ol (aS3); for Aldol product / color formed with MDAB: presence of MDAB, absence of oxygen

## 5-Bromo-6-chloro-1H-indol-3-yl-beta-D-galactopyranoside [Indicator I5a]
Enteric bacterial cells; aR MDAB, equivalents 1:1
  colonial morphology, aerobic conditions: Cream colored colonies
  colonial morphology, microaerobic (anaerobic) conditions: Cream colored colonies
Enteric bacterial cells; no aR
  colonial morphology, aerobic conditions: Cream colored colonies
  colonial morphology, microaerobic (anaerobic) conditions: Cream colored colonies

## CN(C)c1ccc(C=O)cc1 [DAB, 4-(N,N-Dimethyl)aminobenzaldehyde]
Enteric bacterial cells; all conditions tested
  Formation of BI-stains when used to replace MDAB: did not produce any BI-stains

## Cn1cccc1C(=O)c1ccccc1-n1cc(O[C@@H]2O[C@H](CO)[C@H](O)[C@H](O)[C@H]2O)c2ccc(Cl)cc21 [Indicator I31a, 6-Chloro-1-[2-(N-methylpyrrole-2-carbonyl)phenyl]-1H-indol-3-yl-beta-D-galactopyranoside]
Salmonella bongori 81
  C: Color of colonies: +/−
  F: Fluorescence of colonies: −
  G: Growth of colonies: +
Citrobacter freundii 181
  C: Color of colonies: +
  F: Fluorescence of colonies: +/−
  G: Growth of colonies: +
Shigella boydii 135
  C: Color of colonies: −
  F: Fluorescence of colonies: −
  G: Growth of colonies: +
Staphylococcus aureus 2
  F: Fluorescence of colonies: −
  G: Growth of colonies: +
Staphylococcus aureus 2; footnote 2: S. aureus natural color
  C: Color of colonies: −
[1]
  C: Color of colonies: −
  F: Fluorescence of colonies: −
  G: Growth of colonies: +/−
Serratia marcescens 40
  C: Color of colonies: +
  F: Fluorescence of colonies: −
  G: Growth of colonies: +
[2]
  C: Color of colonies: −
  F: Fluorescence of colonies: −
  G: Growth of colonies: +
Shigella sonnei 133
  C: Color of colonies: +
  F: Fluorescence of colonies: +/−
  G: Growth of colonies: +
Salmonella illa 73
  C: Color of colonies: −
  F: Fluorescence of colonies: −
  G: Growth of colonies: +
[3]
  C: Color of colonies: −
  G: Growth of colonies: +
[3]; footnote 1: blue autofluorescence
  F: Fluorescence of colonies: −
[4]
  C: Color of colonies: +
  F: Fluorescence of colonies: −
  G: Growth of colonies: +
Aeromonas hydrophila 292
  C: Color of colonies: +
  F: Fluorescence of colonies: −
  G: Growth of colonies: +
Enterobacter cloacae 245
  C: Color of colonies: +
  F: Fluorescence of colonies: +/−
  G: Growth of colonies: +
Bacillus subtilis 65
  C: Color of colonies: −
  F: Fluorescence of colonies: −
  G: Growth of colonies: +
[5]
  C: Color of colonies: +
  F: Fluorescence of colonies: +/−
  G: Growth of colonies: +
Escherichia coli 61
  C: Color of colonies: +
  F: Fluorescence of colonies: +/−
  G: Growth of colonies: +
[6]
  C: Color of colonies: +/−
  F: Fluorescence of colonies: −
  G: Growth of colonies: +
[7]
  C: Color of colonies: −
  F: Fluorescence of colonies: −
  G: Growth of colonies: +
[8]
  C: Color of colonies: +
  F: Fluorescence of colonies: +/−
  G: Growth of colonies: +
Escherichia coli
  C: Color of colonies: o-r
  D: Diffusion around colonies: +
  G: Growth of colonies: +
  I: Intensity of color: +
  L: Localization on colonies: +/−
  S: Size of colonies: 0.8 mm
[9]
  C: Color of colonies: +
  F: Fluorescence of colonies: −
  G: Growth of colonies: +
Escherichia coli 270
  C: Color of colonies: +
  F: Fluorescence of colonies: +/−
  G: Growth of colonies: +
[10]
  C: Color of colonies: −
  F: Fluorescence of colonies: −
  G: Growth of colonies: +/−
[11]
  C: Color of colonies: +
  F: Fluorescence of colonies: +/−
  G: Growth of colonies: +

## COc1cc(N(C)C)ccc1C=O [MDAB, 2-methoxy-4-(N,N-dimethylamino)benzaldehyde]
Enteric bacterial cells; Indox/MDAB staining of microbial colonies
  Toxic effect on microbial cell growth: no toxic effect

## Oc1c[nH]c2ccc(Br)c(Cl)c12 [aS4, 5-Bromo-4-chloro-1H-indol-3-ol]
[12]
  Efficiency as aldol donor with MDAB: far more effective

## Oc1c[nH]c2cc(Cl)c(Br)cc12 [aS5, 5-Bromo-6-chloro-1H-indol-3-ol]
[12]
  Efficiency as aldol donor with MDAB: far more effective

## Nc1c[nH]c2ccccc12 [aS6, 1H-Indol-3-amine]
[12]
  Aldol product / color formed with MDAB: Formation of the expected hetero aldol product was not observed
[12]; listed as 3-aminoindole
  Aldol product / color formed with MDAB: failed to yield any aldol product

## Sc1c[nH]c2ccccc12 [aS7, 1H-Indol-3-thiol]
[12]
  Aldol product / color formed with MDAB: the expected violet color appeared only under strongly acidic conditions
[12]; listed as 3-mercaptoindole
  Aldol product / color formed with MDAB: did produce the characteristic pink dye (BI7) under strongly acidic conditions
